Patent US12263172B2, “Toll-like receptor agonists for use in the treatment of hepatitis b” (priority 2019, dated 2025)

Experiment: Phase 1 single-ascending dose (Part 1): safety and tolerability in healthy adults
Type: in vivo, human
Method: This ongoing trial is a Phase 1 randomized, double-blind, placebo-controlled study in male and female healthy adult volunteers aged 18-55 years. All volunteers provided written, informed consent.
All volunteers were followed up for 4 weeks and safety and tolerability were continuously assessed throughout the study. All adverse events (AEs) were recorded from the time of consent to the completion visit and were graded using the DAIDS toxicity grading scale. Volunteers also underwent physical examinations, electrocardiograms, vital sign checks and clinical laboratory parameters (chemistry, haematology, urinalysis).

[1] = 1.8 mg and 1.25 mg fasted pooled

For `CCCCOc1nc(N)c2[nH]cc(Cc3ccc(CN4CCCC4)cc3)c2n1` [Compound 4], the “time within which fever and flu-like symptoms resolved” value (1.25 mg and 1.8 mg fasted) was 24 to 48 h, the “time within which low lymphocyte count resolved” value (1.25 mg fasted and 1.8 mg) was ≤ 72 h and the “subjects with treatment-related headache overall” value [1] was 5 subjects. The “subjects with treatment-related pyrexia overall” value [1] was 5 subjects, the “subjects with treatment-related pyrexia grade 1” value (Part 1, all single doses) was 3 subjects and the “subjects with treatment-related pyrexia grade 2” value (Part 1, all single doses) was 2 subjects. For the same compound, the “deaths, other SAEs, or AEs of at least grade 3” value (Part 1 and Part 2) was “no deaths, other SAEs, or AEs of at least grade 3 occurred”, the “serious AEs or dose-limiting toxicities” value (all tested single doses) was “no serious AEs or dose-limiting toxicities” and the “Any AE (treatment-emergent)” value (single dose 0.2 mg fasted) was 4 (67) n (%). The “Back pain Grade 1 (treatment-emergent AE)” value (single dose 0.2 mg fasted) was 0 n (%), the “Chills Grade 1 (treatment-emergent AE)” value (single dose 0.2 mg fasted) was 0 n (%) and the “Contact dermatitis Grade 1 (treatment-emergent AE)” value (single dose 0.2 mg fasted) was 2 (33) n (%). The “Dizziness Grade 1 (treatment-emergent AE)” value (single dose 0.2 mg fasted) was 1 (17) n (%), the “ECG actual value: Heart rate (bpm) Low” value (single dose 0.2 mg fasted) was 1 (16.7%) n (%) and the “ECG actual value: QRS (ms) High” value (single dose 0.2 mg fasted) was 0 n (%). The “ECG actual value: QTcB (ms) ]450; 480]” value (single dose 0.2 mg fasted) was 0 n (%), the “ECG actual value: QTcF (ms) ]450; 480]” value (single dose 0.2 mg fasted) was 0 n (%) and the “ECG change from reference: QTcB (ms) [30; 60]” value (single dose 0.2 mg fasted) was 0 n (%). The “ECG change from reference: QTcF (ms) [30; 60]” value (single dose 0.2 mg fasted) was 0 n (%), the “Headache Grade 1 (treatment-emergent AE)” value (single dose 0.2 mg fasted) was 1 (17) n (%) and the “Headache Grade 2 (treatment-emergent AE)” value (single dose 0.2 mg fasted) was 0 n (%). For the same compound, the “Hypertension Grade 1 (treatment-emergent AE)” value (single dose 0.2 mg fasted) was 0 n (%), the “Hypertension Grade 2 (treatment-emergent AE)” value (single dose 0.2 mg fasted) was 0 n (%) and the “Myalgia Grade 1 (treatment-emergent AE)” value (single dose 0.2 mg fasted) was 0 n (%). The “Oropharyngeal pain Grade 1 (treatment-emergent AE)” value (single dose 0.2 mg fasted) was 0 n (%), the “Pyrexia Grade 1 (treatment-emergent AE)” value (single dose 0.2 mg fasted) was 0 n (%) and the “Pyrexia Grade 2 (treatment-emergent AE)” value (single dose 0.2 mg fasted) was 0 n (%). The “URTI Grade 1 (treatment-emergent AE)” value (single dose 0.2 mg fasted) was 0 n (%), the “lab toxicity: Amylase (U/L), upwards, Grade 1” value (single dose 0.2 mg fasted) was 0 n (%) and the “lab toxicity: Amylase (U/L), upwards, Grade 2” value (single dose 0.2 mg fasted) was 1 (16.7%) n (%). The “lab toxicity: Cholesterol (mmol/L), upwards, Grade 1” value (single dose 0.2 mg fasted) was 0 n (%), the “lab toxicity: Cholesterol (mmol/L), upwards, Grade 2” value (single dose 0.2 mg fasted) was 1 (16.7%) n (%) and the “lab toxicity: Creatine kinase (U/L), upwards, Grade 1” value (single dose 0.2 mg fasted) was 3 (50.0%) n (%). The “lab toxicity: Creatine kinase (U/L), upwards, Grade 2” value (single dose 0.2 mg fasted) was 0 n (%), the “lab toxicity: Creatine kinase (U/L), upwards, Grade 4” value (single dose 0.2 mg fasted) was 0 n (%) and the “lab toxicity: Glucose (mmol/L), upwards, Grade 1” value (single dose 0.2 mg fasted) was 1 (16.7%) n (%). For the same compound, the “lab toxicity: Glucose (mmol/L), upwards, Grade 2” value (single dose 0.2 mg fasted) was 0 n (%), the “lab toxicity: LDL cholesterol (mmol/L, calculated), upwards, Grade 1” value (single dose 0.2 mg fasted) was 1 (16.7%) n (%) and the “lab toxicity: LDL cholesterol (mmol/L, calculated), upwards, Grade 2” value (single dose 0.2 mg fasted) was 1 (16.7%) n (%). The “lab toxicity: LDL cholesterol (mmol/L, calculated), upwards, Grade 3” value (single dose 0.2 mg fasted) was 0 n (%), the “lab toxicity: Lymphocytes (giga/L), downwards, Grade 2” value (single dose 0.2 mg fasted) was 0 n (%) and the “lab toxicity: Lymphocytes (giga/L), downwards, Grade 4” value (single dose 0.2 mg fasted) was 0 n (%). The “lab toxicity: Neutrophils, segmented (giga/L), downwards, Grade 1” value (single dose 0.2 mg fasted) was 0 n (%), the “lab toxicity: Neutrophils, segmented (giga/L), downwards, Grade 2” value (single dose 0.2 mg fasted) was 0 n (%) and the “lab toxicity: Platelets (giga/L), downwards, Grade 1” value (single dose 0.2 mg fasted) was 0 n (%). For the same compound, the “lab toxicity: Sodium (mmol/L), upwards, Grade 1” value (single dose 0.2 mg fasted) was 0 n (%), the “lab toxicity: Sodium (mmol/L), upwards, Grade 2” value (single dose 0.2 mg fasted) was 0 n (%) and the “lab toxicity: Triglycerides (mmol/L), upwards, Grade 1” value (single dose 0.2 mg fasted) was 1 (16.7%) n (%). The “lab toxicity: Triglycerides (mmol/L), upwards, Grade 2” value (single dose 0.2 mg fasted) was 2 (33.3%) n (%), the “lab toxicity: Triglycerides (mmol/L), upwards, Grade 3” value (single dose 0.2 mg fasted) was 0 n (%) and the “lab toxicity: Urate (μmol/L), upwards, Grade 1” value (single dose 0.2 mg fasted) was 2 (33.3%) n (%). For the same compound, the “subjects with at least one AE for which any study drug or study was permanently stopped” value (single dose 0.2 mg fasted) was 0 n (%), the “subjects with at least one AE for which any study drug or study was temporarily stopped” value (single dose 0.2 mg fasted) was 0 n (%) and the “subjects with at least one AE possibly related to any study drug” value (single dose 0.2 mg fasted) was 0 n (%). For the same compound, the “subjects with at least one AE possibly, probably or very likely related to any study drug” value (single dose 0.2 mg fasted) was 0 n (%), the “subjects with at least one AE probably related to any study drug” value (single dose 0.2 mg fasted) was 0 n (%) and the “subjects with at least one AE very likely related to any study drug” value (single dose 0.2 mg fasted) was 0 n (%). For the same compound, the “subjects with at least one SAE” value (single dose 0.2 mg fasted) was 0 n (%), the “subjects with at least one fatal AE” value (single dose 0.2 mg fasted) was 0 n (%) and the “subjects with at least one grade 1 AE” value (single dose 0.2 mg fasted) was 4 (66.7%) n (%). The “subjects with at least one grade 2 AE” value (single dose 0.2 mg fasted) was 0 n (%), the “subjects with at least one grade 3 or 4 AE” value (single dose 0.2 mg fasted) was 0 n (%) and the “subjects with low hematocrit levels (non-graded)” value (single dose 0.2 mg fasted) was 5 (83.3%) n (%). For the same compound, the “treatment-related AE: Any AE” value (single dose 0.2 mg fasted) was 0 n (%), the “treatment-related AE: Chills” value (single dose 0.2 mg fasted) was 0 n (%) and the “treatment-related AE: Dizziness” value (single dose 0.2 mg fasted) was 0 n (%). The “treatment-related AE: General disorders and administration site conditions” value (single dose 0.2 mg fasted) was 0 n (%) and the “treatment-related AE: Headache” value (single dose 0.2 mg fasted) was 0 n (%).
